Measured values from patent publication US5652252A, “Benzocycloheptenes” (Merck Patent Gesellschaft Mit Beschrankter Haftung, priority 1992, dated 1997).
Where two headings read alike, the source gives them in different places.

System: Dukin-Hartley guinea pigs
Assay: Bronchodilating activity in vivo (Konzett and Rossler), histamine bronchospasm
Design: species or system guinea pig
Details: Cavia porcellus, iv, effective dose for 50% inhibition, anaesthetized guinea pigs
Description: The bronchodilating activity was measured in vivo by the method of Konzett H. and Rossler R. (Arch. Exp. Pathol. Pharmak., 1940, 195, p. 71 to 74) and Duhault J. et al. (Arzneim. Forsch./Drug. res., 1987, 37, p. 1353 to 1362).
Measurement of the bronchodilating activity:
Dukin-Hartley guinea pigs (400-500 g) are prepared according to the methodology described by Konzett and Rossler. The animals are anaesthetized by an intraperitoneal injection of urethane (1.5 g/kg) and a tracheotomy is prepared for artificial respiration (45 cycles/min; respiratory volume 10 ml/kg).
The animal is connected to a respiratory pump, which is adjusted to deliver a volume of 1 ml per 100 g of body weight of the guinea pig. It is connected to a recorder via a pressure sensor.
A catheter is placed in the jugular for the I.V. injections.
An I.V. injection of gallamine and propanolol is carried out. After stabilizing the pulmonary pressure for 30 minutes, an I.V. injection of histamine is carried out every 10 minutes until reproducibility is achieved; at that point, the test product is injected 10 minutes after the last spasm.

[1] = 5 min, I.V. histamine tested 5 minutes after injection of the product, read-out: Bronchospam ED50 at 5 min
[2] = 0.25 h, I.V. histamine tested 15 minutes after injection of the product, read-out: Bronchospam ED50 at 15 min

Row | Compound | ED50 [1] | ED50 [2]
1 | CC1(C)C=C(c2cccc[n+]2[O-])c2cc(C#N)ccc2CC1 [Compound 109, 8-Cyano-3,3-dimethyl-1-(2-pyridyl N-oxide)-4,5-dihydro-3H-benzo [f]cycloheptane] | 0.086 mg/kg | 0.331 mg/kg
2 | CC1(C)C=C(c2cccc[n+]2[O-])c2cc(C#N)ccc2OC1 [Compound 104, 7-Cyano-3,3-dimethyl-5-(2-pyridyl N-oxide)-2,3-dihydro-1-benzoxepine] | 0.038 mg/kg | 0.21 mg/kg
3 | CC1(C)C=C(c2cccc[n+]2[O-])c2cc(C(F)(F)F)ccc2OC1 [Compound 100, 3,3-Dimethyl-5-(2-pyridyl N-oxide)-7-trifluoromethyl-2,3-dihydro-1-benzoxepine] | 0.069 mg/kg | 0.101 mg/kg
4 | CC1(C)C=C(c2cccc[n+]2[O-])c2cc(Cl)ccc2OC1 [Compound 91, 7-Chloro-3,3-methyl-(2-pyridyl N-oxide)-2,3-dihydro-1-benzoxepine] | 0.1 mg/kg | 
5 | Cc1cc2c(cc1C#N)OCC(C)(C)C=C2c1cccc[n+]1[O-] [Compound 119] | 0.31 mg/kg | 0.53 mg/kg
6 | CC1(C)C=C(c2cccc[n+]2[O-])c2cc(F)c(F)cc2OC1 [Compound 114, 7,8-Difluoro-3,3-dimethyl-5-(2-pyridyl N-oxide) -2,3-dihydro-1-benzoxepine] | 0.04 mg/kg | 0.3 mg/kg
7 | Cc1cc2c(cc1C#N)C(c1cccc[n+]1[O-])=CC(C)(C)CO2 [Compound 118, 7-Cyano-3,3,8-trimethyl-5-(2-pyridyl N-oxide)-2,3-dihydro-1-benzoxepine] | 0.15 mg/kg | 0.2 mg/kg
8 | CC1(C)C=C(c2cccc[n+]2[O-])c2cc(Cl)c(Cl)cc2OC1 [Compound 111, 7,8-Dichloro-3,3-dimethyl-5-(2-pyridyl N-oxide)-2,3-dihydro-1-benzoxepine] | 0.049 mg/kg | 0.1 mg/kg
